The record followed here is article PMC4786809, “Determination of cyanidin 3-glucoside in rat brain, liver and kidneys by UPLC/MS-MS and its application to a short-term pharmacokinetic study” (Scientific Reports, 2016).

Format in all cases: in vivo, Wistar rats
Data set [1] can be described thus: Liver concentrations and tissue pharmacokinetics after intravenous C3G. The note with it: for AUC0-t: i.v. 668 nmol C3G. The text has this:
(§1) Twenty-two male Wistar rats (Rattus Norvegicus, Harlan Italy S.r.l.), of same age (15 weeks), 293–390 g of body weight, were used. The rats were randomly divided into 5 groups, according to the time that elapsed after intravenous administration of the test compound, and one control group. Each time point was represented by four biological replicates. All animals were allowed to acclimate to the animal facility of the University of Trieste for at least 2 week before studies were initiated. The experimental design was vetted and approved by the bioethical committee of the University of Trieste (internal code 140PAS14), according to the provisions of the European Community Council Directive 2010/63/EU[39]. The methods were carried out in accordance with the approved guidelines. The animals (n = 22) were maintained in cages in a room at 23 ± 2 °C, 50–60% humidity with a 12-hour light-dark cycle. The night before the experiment, food was withdrawn from the cages but water was given ad libitum. On the day of the experiment, the rats were anesthetized with intra-peritoneal administration of tiletamine/zolazepam (1:1, 25 mg/kg body weight) and xylazine (10 mg/kg body weight). During anaesthesia (10 min in all cases), the heart and ventilation rate were monitored. The rats were placed on their backs, with the ventral side up and with the legs spread separately on a thermo-isolated support. The penis was extruded by sliding the prepuce downwards. The dorsal penis vein was then seen along both sides of the penis and exactly 10 min after anaesthesia 0.2 mL PBS without (control group) or with (treated group) 668 nmol cyanidin 3-glucoside (C3G) in PBS was injected using a 24-G hypodermic needle. Then the injection site was pressed with a swab for a few seconds, and the glans was encouraged to retract to prevent further bleeding. One min before sacrificing the rats, sodium heparin (0.1 ml, 500 IU) was injected again into the dorsal penis vein, exposed in the same way. […] Blood draining and excision of the organs were carried out according to the literature. In detail, blood was collected from the neck of rats hold upside down, immediately after their decapitation, which happened at the time points sharp. Exsanguination took 5 seconds; laparotomy and excision of the liver and the kidneys took 5 more seconds. The post-decapitation procedures were standardised. Urine was collected through the urinary bladder with a syringe before decapitation. Kidneys, liver and brain were washed with mQ water, immediately frozen in liquid nitrogen and stored at −80 °C.
(§2) Immediately after sampling, 5 mL of blood were transferred into ice-cold (−20 °C), deoxygenated aqueous 95% methanol in a ratio 1:9 (v/v). The urine was weighted and transferred into ice-cold, deoxygenated aqueous 95% methanol at a ratio of 1:9 (w/v). Frozen kidneys, liver and brain were grounded under cryogenic conditions (−196 °C) to 5 μm particles in a CryoMill (Retsch, Germany), using a single 25 mm i. d. steel ball (30 seconds, 25/sec frequency). The pulverized tissue was rapidly transferred (without thawing) into ice-cold, deoxygenated aqueous 95% methanol at a ratio of 1:9 (w/v). Cinnamic acid-d5, as internal standard, was dissolved in the aqueous methanol at concentration of 0.1 mg/L for the monitoring of the extraction protocol in biofluids and tissues.
(§3) All samples were extracted with an orbital shaker for 10 min at room temperature. The methanol extracts were then centrifuged for 5 min at 3600 rpm at 4 °C, decanted under a stream of nitrogen in 50 mL dark glass vessels and stored at −80 °C. Clean-up of extracted samples in methanol was performed by solid phase extraction (SPE), as previously described. Briefly, 5 mL of extracted samples were evaporated on a rotary evaporator and reconstituted in 10 mL of acidified water. Anthocyanins were extracted by solid-phase adsorption onto a hydrophobic matrix (Sep-Pak C18, 0.35 g, Waters, Milford, MA). […]

Data set [2] in a line: Plasma concentrations and pharmacokinetics after intravenous bolus of C3G (NCA and two-compartment model). Particulars: male, Wistar, rat, plasma, iv; for concentration at 2 min: 2 min after i.v. 668 nmol C3G; for concentration at 2 min / concentration at 0.25 min / concentration at 5 min / concentration at 15 min / concentration at 20 min: mean ± SEM n=4; for concentration at 0.25 min: 0.25 min after i.v. 668 nmol C3G; for concentration at 5 min: 5 min after i.v. 668 nmol C3G; for AUC0-t / half-life: i.v. 668 nmol C3G; for AUC0-t: read-out: AUC0–20 (converted); for half-life: 668 nmol, read-out: Half life; for concentration at 15 min: 15 min after i.v. 668 nmol C3G; for concentration at 20 min: 20 min after i.v. 668 nmol C3G.
Excerpt: as §1, §2, §3

Data set [3] can be described thus: Urinary excretion after intravenous C3G.
Excerpt: as §1, §2, §3

Data set [4] in a line: Brain concentrations and tissue pharmacokinetics after intravenous C3G.
Excerpt: as §1, §2, §3

Data set [5] in a line: Kidney concentrations and tissue pharmacokinetics after intravenous C3G.
Excerpt: as §1, §2, §3

Setting [6] is: 0.25 min after i.v. 668 nmol C3G, mean ± SEM n=4.
[7] abbreviates: 0.25 min after i.v. 668 nmol C3G.

`COc1ccc(-c2[o+]c3cc(O)cc(O)c3cc2O[C@@H]2O[C@H](CO)[C@@H](O)[C@H](O)[C@H]2O)cc1O` [isoPN3G]: the “Mean concentration in liver” value is given as 13.86 ± 4.32 pmol/g in data set [1] (setting [6]); 6.19 ± 2.09 pmol/g in data set [1] (2 min after i.v. 668 nmol C3G); 15.85 ± 1.82 pmol/g in data set [1] (5 min after i.v. 668 nmol C3G); 1.39 ± 1.14 pmol/g in data set [1] (15 min after i.v. 668 nmol C3G); 0.64 ± 0.25 pmol/g in data set [1] (20 min after i.v. 668 nmol C3G). The compound also showed a half-life in data set [1] (liver) of 3.18 min. Also, in data set [1] (liver only), the “Peak relative to PN3G” value is recorded as “around 2.59 % of PN3G”. This compound also had an AUC0-t in data set [1] (liver) of 145.57 pmol·min/g.

Take `OC[C@H]1O[C@@H](Oc2cc3c(O)cc(O)cc3[o+]c2-c2cc(O)c(O)c(O)c2)[C@H](O)[C@@H](O)[C@@H]1O` [D3G, Delphinidin-3-O-β-glucoside]: the concentration at 2 min in data set [2] amounted to 12.8 ± 10.5 nM. Moreover, the Urine concentration in data set [3] (setting [7]) amounted to 20 ± 10 pmol/g; in data set [3] (2 min after i.v. 668 nmol C3G), 30 ± 0 pmol/g; in data set [3] (5 min after i.v. 668 nmol C3G), 50 ± 10 pmol/g; in data set [3] (15 min after i.v. 668 nmol C3G) it was 20 ± 10 pmol/g; in data set [3] (20 min after i.v. 668 nmol C3G), 30 ± 10 pmol/g.

Consider `COc1cc(-c2[o+]c3cc(O)cc(O)c3cc2O[C@@H]2O[C@H](CO)[C@@H](O)[C@H](O)[C@H]2O)cc(O)c1O` [PT3G, Petunidin-3-O-β-glucoside], for which the “Mean concentration in brain” value in data set [4] (2 min after i.v. 668 nmol C3G) is reported as 1.15 ± 0.62 pmol/g; in data set [4] (5 min after i.v. 668 nmol C3G), 1.01 ± 0.46 pmol/g; in data set [4] (15 min after i.v. 668 nmol C3G) it was 2.45 ± 0.22 pmol/g; in data set [4] (20 min after i.v. 668 nmol C3G), 1.90 ± 0.60 pmol/g. Further, the AUC0-t in data set [4] (brain, i.v. 668 nmol C3G) was 32.42 pmol·min/g; in data set [5] (kidneys, unit per footnote *), 48.13 ^* pmol g^–1 min^–1; in data set [1] (liver), 33.85 pmol·min/g. For the same compound, the concentration at 0.25 min in data set [2] was 2.2 ± 1.05 nM. Moreover, the concentration at 2 min in data set [2] turned out to be 4.95 ± 3.16 nM. The compound also came in with a concentration at 5 min in data set [2] of 1.71 ± 1.39 nM. For the same compound, the “Mean concentration in kidneys” value in data set [5] (setting [7]) was determined as 2.04 ± 0.59 pmol/g; in data set [5] (2 min after i.v. 668 nmol C3G) it was 2.82 ± 0.28 pmol/g; in data set [5] (5 min after i.v. 668 nmol C3G) it was 2.40 ± 0.13 pmol/g; in data set [5] (15 min after i.v. 668 nmol C3G), 2.29 ± 0.07 pmol/g; in data set [5] (20 min after i.v. 668 nmol C3G) it was 2.53 ± 0.26 pmol/g. Further, in data set [5] (kidneys), the “MTTK (Mean Transit time in kidneys)” value is 187.44 min. Further, in data set [5] (male, Wistar, rat, kidney, iv, 668 nmol, kidneys), the half-life was 135 min. In addition, the Urine concentration stood at 4.58 ± 2.84 pmol/g in data set [3] (setting [7]) and 3.30 ± 1.59 pmol/g in data set [3] (2 min after i.v. 668 nmol C3G). For the same compound, the “Mean concentration in liver” value in data set [1] (setting [6]) was determined as 1.23 ± 0.59 pmol/g; in data set [1] (2 min after i.v. 668 nmol C3G), 2.42 ± 0.08 pmol/g; in data set [1] (5 min after i.v. 668 nmol C3G) it was 1.09 ± 0.52 pmol/g; in data set [1] (15 min after i.v. 668 nmol C3G) it was 1.60 ± 0.44 pmol/g; in data set [1] (20 min after i.v. 668 nmol C3G) it was 3.06 ± 0.19 pmol/g.

In the case of `OC[C@H]1O[C@@H](Oc2cc3c(O)cc(O)cc3[o+]c2-c2ccc(O)cc2)[C@H](O)[C@@H](O)[C@@H]1O` [PG3G, Pelargonidin-3-O-β-glucoside], in data set [2], the AUC0-t was 0.673 nM·h, the half-life came to 44.7 min, the concentration at 0.25 min amounted to 4.5 ± 0.62 nM and the concentration at 2 min was 1.89 ± 0.17 nM. Also, in data set [2], the concentration at 5 min came out at 2.01 ± 0.28 nM, the concentration at 15 min stood at 1.9 ± 0.19 nM and the concentration at 20 min turned out to be 1.55 ± 0.13 nM. The same compound came in with a Urine concentration in data set [3] (setting [7]) of 1.57 ± 0.40 pmol/g. In data set [3] (2 min after i.v. 668 nmol C3G), this compound gave a Urine concentration of 7.92 ± 2.59 pmol/g. This compound also gave a Urine concentration in data set [3] (5 min after i.v. 668 nmol C3G) of 47.09 ± 4.16 pmol/g. In data set [3] (15 min after i.v. 668 nmol C3G), this compound displayed a Urine concentration of 33.22 ± 16.09 pmol/g. The same compound gave a Urine concentration in data set [3] (20 min after i.v. 668 nmol C3G) of 20.98 ± 5.61 pmol/g.

As to `COc1cc(-c2[o+]c3cc(O)cc(O)c3cc2O[C@@H]2O[C@H](CO)[C@@H](O)[C@H](O)[C@H]2O)cc(OC)c1O` [M3G, Malvidin-3-O-β-glucoside], in data set [2], the AUC0-t was 5.72 nM·h, the half-life came out at 5.29 min, the concentration at 0.25 min turned out to be 9.13 ± 3.46 nM and the concentration at 2 min was 95.8 ± 61.7 nM. Moreover, in data set [2], the concentration at 5 min came to 16.4 ± 13.1 nM, the concentration at 15 min was found to be 3.67 ± 0.14 nM and the concentration at 20 min stood at 8.6 ± 3.88 nM. Besides, the Urine concentration in data set [3] (setting [7]) came out at 28.35 ± 17.87 pmol/g. In data set [3] (2 min after i.v. 668 nmol C3G), this compound registered a Urine concentration of 9.57 ± 4.52 pmol/g. For the same compound, in data set [3] (5 min after i.v. 668 nmol C3G), the Urine concentration stood at 5.15 ± 1.88 pmol/g. The Urine concentration in data set [3] (15 min after i.v. 668 nmol C3G) is given as 3.17 ± 1.64 pmol/g.

What is called half-life is how long it takes for the measured level to halve.
